Values quoted from earlier work in publication PMC9952391, “The Role of Acetyl Zingerone and Its Derivatives in Inhibiting UV-Induced, Incident, and Delayed Cyclobutane Pyrimidine Dimers” (Antioxidants, 2023).

Test system: melanocytes
Parameters: method as in PMID 31538664
Conditions: 25 µg/mL; cited from earlier work

## COc1cc(CC(C(C)=O)C(C)=O)ccc1O [AZ, 3-(4-Hydroxy-3-methoxybenzyl)-pentane-2,4-dione]
  Effect on iCPDs: without any significant effect
  Inhibition of delayed or dark CPDs (dCPDs): inhibition
